{
  "source": "patent US20210106566A1",
  "about": "“PHARMACEUTICAL COMPOSITION FOR TREATING AND/OR PREVENTING PERIPHERAL NEUROPATHY OR SPINAL CORD INJURY” (NATIONAL UNIVERSITY CORPORATION NAGOYA UNIVERSITY, priority 2015, published 2021)",
  "key": {"[1]": {"system": "mouse sciatic nerve autologous transplantation model", "test": "Mouse sciatic nerve autologous transplantation model: walking track analysis (SFI)", "format": "in vivo", "conditions": "30 mg/kg/day, 6 to 8 weeks after surgery", "text": "Adult male C57BL/6J mice (8 weeks old; 19.5-22.0 g) were purchased from Charles River. The mice were anesthetized with isoflurane and underwent gluteal muscle incision under a sterile condition to expose the sciatic nerve in the left leg. The sciatic nerve was cut at the following two sites (1) and (2): (1) the site 3 mm distal to the first bifurcation of biceps femoris (hereinafter referred to as proximal transection site) (2) the site 3 mm distal to the proximal transection site (hereinafter referred to as distal transection site) The excised nerve segment with a length of 3 mm was confirmed to be completely cut at the two sites. […] Myelin sheath formation in the sciatic nerve was analyzed in six mice in each group. […] The number and area of myelinated axons in the sciatic nerve were manually measured using ImageJ software in a blinded fashion. Motor function was assessed every week in three mice in each group using the walking track analysis. In the walking track analysis, footprints of both hindlimbs were recorded when mice were allowed to walk freely on a runway. Sciatic function index (SFI; Bain et al. Plast Reconstr Surg 83: 129-138 (1989)) was calculated by measuring the width and length of footprints of both legs in a blinded fashion. […] Footprints were recorded on six to eight thin boards."}, "[2]": {"system": "Bdnf, Ngf, Ntf4, Ntrk1, Ntrk2, Map2, Mapt, Gap43", "test": "Mouse sciatic nerve autologous transplantation model: mRNA in sciatic nerve segment", "format": "in vivo", "conditions": "sciatic nerve segment distal to the distal transection site, 8 weeks after surgery", "text": "Adult male C57BL/6J mice (8 weeks old; 19.5-22.0 g) were purchased from Charles River. The mice were anesthetized with isoflurane and underwent gluteal muscle incision under a sterile condition to expose the sciatic nerve in the left leg. The sciatic nerve was cut at the following two sites (1) and (2): (1) the site 3 mm distal to the first bifurcation of biceps femoris (hereinafter referred to as proximal transection site) (2) the site 3 mm distal to the proximal transection site (hereinafter referred to as distal transection site) The excised nerve segment with a length of 3 mm was confirmed to be completely cut at the two sites. The perineurium was sutured with nylon thread (10-0 black) at the proximal transection site and the distal transection site under a microscope. The remaining thread was used as a marker for finding the nerve transection site in the sacrifice of the mice. In order to reduce DMSO toxicity, a solution of 60 mg/mL zonisamide in 100% DMSO was prepared and the solution was diluted in olive oil to give a solution of 3 mg/mL zonisamide in 5% DMSO. The control solution (5% DMSO) or zonisamide (3 mg/mL×about 0.2 mL) at 30 mg/kg/day was administered to the stomach using a disposable probe needle (flexible type, Fuchigami) once a day for 1 to 8 weeks from the end of surgery until sacrifice. Myelin sheath formation in the sciatic nerve was analyzed in six mice in each group. One week after the sciatic nerve autologous transplantation, the sciatic nerve was transected at “the proximal transection site” and “the site 3 mm distal to the distal transection site” to excise a nerve segment with a length of 6 mm. Subsequently, the nerve segment was fixed in 2% paraformaldehyde/2.5% glutaraldehyde in 0.2 mol/L sodium cacodylate buffer pH 7.3 overnight, treated with 2% osmium tetroxide for 3 hours, and dehydrated in ethanol. After epon embedding, a semithin section (with a thickness of 1 μm) was cut at the position 0.7 mm distal to the distal transection site, stained with alkaline Toluidine blue (Sigma), and examined under a microscope (FSX100, Olympus). The number and area of myelinated axons in the sciatic nerve were manually measured using ImageJ software in a blinded fashion. Eight weeks after sciatic nerve autologous transplantation, the entire gastrocnemius muscle and a sciatic nerve segment between the distal transection site and the site 3 mm distal to the distal transection site were isolated for total RNA extraction. Similar sciatic nerve segment was also isolated from the hindlimb without transected sciatic nerve. The mRNA expression levels of Bdnf, Ngf, Ntf4, Ntrk1, Ntrk2, Map2, Mapt, Gap43, Chrne, Colq, and Rapsn were quantified in a manner similar to Example 5."}},
  "data": [
    {"smiles": "NS(=O)(=O)Cc1noc2ccccc12", "note": "[Zonisamide, 3-sulfamoylmethyl-1,2-benzisoxazole]", "values": [
      {"measurement": "SFI (sciatic function index), motor function of hindlimbs", "setting": "[1]", "result": "dramatically improved"},
      {"measurement": "expression level of Bdnf", "setting": "[2]", "result": "unchanged"},
      {"measurement": "gene expression level of Ngf", "setting": "[2]", "result": "increased"},
      {"measurement": "gene expression level of Ntf4", "setting": "[2]", "result": "increased"},
      {"measurement": "mRNA level of Gap43", "setting": "[2]", "result": "elevated"},
      {"measurement": "mRNA level of Map2", "setting": "[2]", "result": "elevated"},
      {"measurement": "mRNA level of Mapt", "setting": "[2]", "result": "elevated"},
      {"measurement": "mRNA level of Ntrk1", "setting": "[2]", "result": "increased"},
      {"measurement": "mRNA level of Ntrk2", "setting": "[2]", "result": "increased"}
    ]}
  ]
}
